Reference: patent US20120219615A1, “Therapeutic Use of a TLR Agonist and Combination Therapy” (The Trustees of the University of Pennsylvania, priority 2010, published 2012)

Experiments:
Assay type in all cases: cell-based
Conditions in all cases: concentrations up to 25 μM
TLR3 = target: T1, TLR3 (Homo sapiens, UniProt O15455); assay: Activity on TLR3
T1 sequence (O15455 24-904): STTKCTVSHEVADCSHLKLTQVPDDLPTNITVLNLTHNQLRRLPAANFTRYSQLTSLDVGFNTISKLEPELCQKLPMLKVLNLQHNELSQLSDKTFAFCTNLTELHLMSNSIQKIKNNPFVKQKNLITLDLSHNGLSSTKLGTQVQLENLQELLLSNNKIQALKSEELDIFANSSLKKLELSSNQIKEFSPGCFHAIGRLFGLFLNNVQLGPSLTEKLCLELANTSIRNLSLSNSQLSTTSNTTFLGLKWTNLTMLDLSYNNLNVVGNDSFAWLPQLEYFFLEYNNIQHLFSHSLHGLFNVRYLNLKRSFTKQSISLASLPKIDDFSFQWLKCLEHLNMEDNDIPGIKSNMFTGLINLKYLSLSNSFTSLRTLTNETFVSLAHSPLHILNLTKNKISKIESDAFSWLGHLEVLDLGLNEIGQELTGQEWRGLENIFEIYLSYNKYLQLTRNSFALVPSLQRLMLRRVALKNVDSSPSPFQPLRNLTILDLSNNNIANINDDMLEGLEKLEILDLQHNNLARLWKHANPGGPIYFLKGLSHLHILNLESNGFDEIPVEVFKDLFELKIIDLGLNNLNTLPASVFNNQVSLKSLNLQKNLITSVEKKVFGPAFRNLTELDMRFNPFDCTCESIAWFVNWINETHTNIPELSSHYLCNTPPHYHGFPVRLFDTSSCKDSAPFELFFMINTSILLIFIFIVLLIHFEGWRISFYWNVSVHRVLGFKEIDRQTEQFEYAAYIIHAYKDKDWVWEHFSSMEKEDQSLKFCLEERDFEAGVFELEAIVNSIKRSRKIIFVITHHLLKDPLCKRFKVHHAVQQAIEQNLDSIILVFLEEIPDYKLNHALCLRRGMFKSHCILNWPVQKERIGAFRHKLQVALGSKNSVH
Experimental: (§1) The half-maximal effective concentration (EC50) for VTX-2337 activation of TLR8 and TLR7 was assessed in peripheral blood mononuclear cells (PBMCs) from 15 healthy donors and also in HEK293 cells transfected with TLR8 or TLR7 and an NF-κB driven reporter gene. […] Also it was observed that VTX-2337 had no activity on TLR2, TLR3, TLR4, TLR5, TLR6, or TLR9 at concentrations up to 25 μM.

TLR5 = TLR5 (Homo sapiens, UniProt O60602); assay: Activity on TLR5
Experimental: as §1

TLR6 = TLR6 (Homo sapiens, UniProt O60603+Q9Y2C9); assay: Activity on TLR6
Experimental: as §1

TLR9 = target: T2, TLR9 (Homo sapiens, UniProt Q9NR96); assay: Activity on TLR9
T2 sequence (Q9NR96 26-1032): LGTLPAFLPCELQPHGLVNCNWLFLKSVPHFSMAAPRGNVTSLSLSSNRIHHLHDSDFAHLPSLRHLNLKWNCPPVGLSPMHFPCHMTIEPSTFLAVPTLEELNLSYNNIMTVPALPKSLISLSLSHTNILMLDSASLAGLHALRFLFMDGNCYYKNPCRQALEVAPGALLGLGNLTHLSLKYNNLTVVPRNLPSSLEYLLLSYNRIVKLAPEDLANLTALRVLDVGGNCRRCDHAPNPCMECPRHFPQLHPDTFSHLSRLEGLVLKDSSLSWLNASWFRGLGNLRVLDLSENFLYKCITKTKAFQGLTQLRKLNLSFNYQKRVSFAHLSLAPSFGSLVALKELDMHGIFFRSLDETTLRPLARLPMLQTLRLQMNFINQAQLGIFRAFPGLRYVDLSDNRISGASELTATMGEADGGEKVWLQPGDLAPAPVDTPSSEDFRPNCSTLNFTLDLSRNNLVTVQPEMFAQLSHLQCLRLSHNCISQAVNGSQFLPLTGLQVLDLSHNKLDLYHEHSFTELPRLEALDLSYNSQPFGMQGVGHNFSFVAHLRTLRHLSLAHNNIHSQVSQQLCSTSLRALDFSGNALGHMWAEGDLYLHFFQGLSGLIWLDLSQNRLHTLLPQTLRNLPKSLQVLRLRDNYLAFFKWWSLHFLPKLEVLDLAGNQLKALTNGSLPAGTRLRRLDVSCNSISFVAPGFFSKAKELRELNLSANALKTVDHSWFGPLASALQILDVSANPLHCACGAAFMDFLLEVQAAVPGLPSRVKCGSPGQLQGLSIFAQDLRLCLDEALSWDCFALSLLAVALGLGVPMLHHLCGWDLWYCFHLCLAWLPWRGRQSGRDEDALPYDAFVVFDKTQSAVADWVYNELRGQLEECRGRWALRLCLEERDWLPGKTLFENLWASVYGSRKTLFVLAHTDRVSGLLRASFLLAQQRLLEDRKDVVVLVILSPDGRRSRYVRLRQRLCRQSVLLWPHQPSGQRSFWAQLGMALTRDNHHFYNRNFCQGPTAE
Experimental: as §1

TLR6, sequence (Q9Y2C9 32-796, species assumed): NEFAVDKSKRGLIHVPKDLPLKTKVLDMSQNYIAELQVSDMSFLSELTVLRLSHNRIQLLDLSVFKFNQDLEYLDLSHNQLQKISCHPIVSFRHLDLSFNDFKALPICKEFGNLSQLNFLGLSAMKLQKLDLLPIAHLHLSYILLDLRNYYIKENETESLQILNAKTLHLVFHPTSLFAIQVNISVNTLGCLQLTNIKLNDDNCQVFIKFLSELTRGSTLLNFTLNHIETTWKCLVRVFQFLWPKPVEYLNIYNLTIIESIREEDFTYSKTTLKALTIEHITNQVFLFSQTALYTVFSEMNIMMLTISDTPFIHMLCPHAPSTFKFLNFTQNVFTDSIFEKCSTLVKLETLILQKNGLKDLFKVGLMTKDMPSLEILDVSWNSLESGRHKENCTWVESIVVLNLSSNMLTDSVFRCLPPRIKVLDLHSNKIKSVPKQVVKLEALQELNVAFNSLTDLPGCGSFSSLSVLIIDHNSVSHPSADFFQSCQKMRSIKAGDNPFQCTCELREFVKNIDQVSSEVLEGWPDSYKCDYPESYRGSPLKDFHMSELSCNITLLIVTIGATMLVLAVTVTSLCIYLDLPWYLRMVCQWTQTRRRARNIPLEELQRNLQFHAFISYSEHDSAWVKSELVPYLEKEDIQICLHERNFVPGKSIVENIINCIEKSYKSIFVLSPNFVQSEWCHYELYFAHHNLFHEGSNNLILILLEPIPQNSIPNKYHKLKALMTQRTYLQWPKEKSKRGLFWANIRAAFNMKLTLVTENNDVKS
TLR6, sequence (O60603 21-784, species assumed): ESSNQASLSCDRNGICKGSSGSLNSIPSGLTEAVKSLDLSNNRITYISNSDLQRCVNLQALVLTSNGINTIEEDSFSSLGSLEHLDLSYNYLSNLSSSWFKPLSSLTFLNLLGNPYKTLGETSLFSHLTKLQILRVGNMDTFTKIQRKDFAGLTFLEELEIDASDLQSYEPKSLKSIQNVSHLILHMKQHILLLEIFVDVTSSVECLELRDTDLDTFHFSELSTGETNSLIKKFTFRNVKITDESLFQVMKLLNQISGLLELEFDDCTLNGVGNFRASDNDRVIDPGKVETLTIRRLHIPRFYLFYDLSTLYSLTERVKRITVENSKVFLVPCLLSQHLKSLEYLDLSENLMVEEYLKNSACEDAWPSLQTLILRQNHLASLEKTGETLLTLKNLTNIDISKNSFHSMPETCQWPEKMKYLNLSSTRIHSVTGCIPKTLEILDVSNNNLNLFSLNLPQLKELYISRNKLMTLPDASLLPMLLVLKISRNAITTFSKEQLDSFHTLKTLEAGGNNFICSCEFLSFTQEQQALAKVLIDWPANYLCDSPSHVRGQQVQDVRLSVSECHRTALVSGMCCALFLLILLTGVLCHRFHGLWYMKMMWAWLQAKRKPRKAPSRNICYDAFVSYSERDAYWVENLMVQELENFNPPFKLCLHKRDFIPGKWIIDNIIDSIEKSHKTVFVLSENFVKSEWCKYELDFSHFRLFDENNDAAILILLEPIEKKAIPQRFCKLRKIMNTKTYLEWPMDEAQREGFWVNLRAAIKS
TLR5, sequence (O60602 21-858, species assumed): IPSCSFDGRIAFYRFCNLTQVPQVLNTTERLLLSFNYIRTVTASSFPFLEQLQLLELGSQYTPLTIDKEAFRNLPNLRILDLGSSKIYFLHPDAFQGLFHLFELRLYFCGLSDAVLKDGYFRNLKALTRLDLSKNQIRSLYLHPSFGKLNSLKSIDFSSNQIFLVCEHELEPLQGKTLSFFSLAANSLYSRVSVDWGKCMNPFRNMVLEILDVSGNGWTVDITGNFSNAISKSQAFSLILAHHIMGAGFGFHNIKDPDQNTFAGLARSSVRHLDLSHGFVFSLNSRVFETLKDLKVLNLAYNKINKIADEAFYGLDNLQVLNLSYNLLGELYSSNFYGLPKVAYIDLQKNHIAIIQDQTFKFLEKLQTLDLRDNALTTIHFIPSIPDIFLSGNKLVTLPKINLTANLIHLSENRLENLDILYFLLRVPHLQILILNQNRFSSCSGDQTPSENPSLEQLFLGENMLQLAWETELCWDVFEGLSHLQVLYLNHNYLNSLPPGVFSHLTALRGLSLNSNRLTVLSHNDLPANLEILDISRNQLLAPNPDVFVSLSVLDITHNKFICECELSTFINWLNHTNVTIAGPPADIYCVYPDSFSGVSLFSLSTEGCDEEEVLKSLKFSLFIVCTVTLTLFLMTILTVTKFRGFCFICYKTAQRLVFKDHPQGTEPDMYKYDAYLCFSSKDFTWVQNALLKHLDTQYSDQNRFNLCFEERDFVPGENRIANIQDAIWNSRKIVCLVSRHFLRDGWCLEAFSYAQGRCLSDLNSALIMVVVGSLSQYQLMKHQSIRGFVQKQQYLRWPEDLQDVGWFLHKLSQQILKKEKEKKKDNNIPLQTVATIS

- activity on TLR3 (TLR3): no activity
- activity on TLR5 (TLR5): no activity
- activity on TLR6 (TLR6): no activity
- activity on TLR9 (TLR9): no activity
Structure (SMILES): CCCN(CCC)C(=O)C1=Cc2ccc(-c3ccc(C(=O)N4CCCC4)cc3)cc2N=C(N)C1 [VTX-2337, 2-amino-N,N-dipropyl-8-(4-(pyrrolidine-1-carbonyl)phenyl)-3H-benzo[b]azepine-4-carboxamide]
